# Results as given in patent US20260191803A1, “SYSTEM AND METHOD FOR THE TREATMENT OF TELOGEN EFFLUVIUM AND CHEMOTHERAPY INDUCED ALOPECIA” (Follea International, priority 2025, published 2026).
# System: hair shedding
# Assay: Example 5: hair shedding, hairs removed with brush after 10% phenylephrine or placebo
# Format: in vivo, human
# Conditions: average of 15 patients; versus placebo
# Excerpt: Patients: Fifteen female subjects, ages 18-40, were included in the study. Subjects were recruited based on telogen effluvium diagnosis. Subjects with uncontrolled hypertension, that were pregnant or breastfeeding, had been diagnosed with pattern hair loss or with other hair loss in conjunction with female pattern hair loss were excluded from the study.
# Hair Shedding: To measure hair shedding, a 4-day protocol was designed. On the first day patients were instructed to wash their hair and use styling products and procedures as they normally would. On the second day, patients were instructed not to wash their hair and to apply 0.5 mL of a placebo solution, containing a vehicle only, on the frontal area of the scalp in an 8×10 cm2 target area. Patients were instructed to wait 45 minutes, after which, they brushed their hair 20 times from the front of the scalp to the bottom of head using a new brush. After the procedure, the brushes were sealed in a plastic bag. On day three, patients were instructed to wash their hair and use styling products and procedures as they normally would. […] After each clinical procedure, the investigator counted the hairs collected on each brush. A new brush was used for each procedure.
structure (smiles),measurement,value
CNC[C@H](O)c1cccc(O)c1 [phenylephrine],Average reduction in hair loss,approximately 42%
